Test results: ChEMBL document CHEMBL1909046, “DrugMatrix in vitro pharmacology data”

How the values were obtained:
[1] = molecular target: Beta-1 adrenergic receptor (Homo sapiens, UniProt P08588); assay: DRUGMATRIX: Adrenergic beta1 radioligand binding (ligand: [125I] Cyanopindolol); assay type: cell membranes, CHO-K1, Membrane; conditions: cho-k1; Not Active = under 50% inhibition at 10 µM
[2] = molecular target: Cannabinoid receptor 1 (Homo sapiens, UniProt P21554); assay type: cell membranes, Membrane; conditions: chem-1; further: in other assays of this panel Not Active means under 50% inhibition at 10 µM
[3] = molecular target: T1, 3-hydroxy-3-methylglutaryl-coenzyme A reductase (Homo sapiens, UniProt P04035); design: species or system Escherichia coli;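 further: enzyme inhibition assay of HMG-CoA reductase using radiolabeled [14C]HMG-CoA as substrate; in other assays of this panel Not Active means under 50% inhibition at 10 µM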
T1 sequence (P04035 whole entry): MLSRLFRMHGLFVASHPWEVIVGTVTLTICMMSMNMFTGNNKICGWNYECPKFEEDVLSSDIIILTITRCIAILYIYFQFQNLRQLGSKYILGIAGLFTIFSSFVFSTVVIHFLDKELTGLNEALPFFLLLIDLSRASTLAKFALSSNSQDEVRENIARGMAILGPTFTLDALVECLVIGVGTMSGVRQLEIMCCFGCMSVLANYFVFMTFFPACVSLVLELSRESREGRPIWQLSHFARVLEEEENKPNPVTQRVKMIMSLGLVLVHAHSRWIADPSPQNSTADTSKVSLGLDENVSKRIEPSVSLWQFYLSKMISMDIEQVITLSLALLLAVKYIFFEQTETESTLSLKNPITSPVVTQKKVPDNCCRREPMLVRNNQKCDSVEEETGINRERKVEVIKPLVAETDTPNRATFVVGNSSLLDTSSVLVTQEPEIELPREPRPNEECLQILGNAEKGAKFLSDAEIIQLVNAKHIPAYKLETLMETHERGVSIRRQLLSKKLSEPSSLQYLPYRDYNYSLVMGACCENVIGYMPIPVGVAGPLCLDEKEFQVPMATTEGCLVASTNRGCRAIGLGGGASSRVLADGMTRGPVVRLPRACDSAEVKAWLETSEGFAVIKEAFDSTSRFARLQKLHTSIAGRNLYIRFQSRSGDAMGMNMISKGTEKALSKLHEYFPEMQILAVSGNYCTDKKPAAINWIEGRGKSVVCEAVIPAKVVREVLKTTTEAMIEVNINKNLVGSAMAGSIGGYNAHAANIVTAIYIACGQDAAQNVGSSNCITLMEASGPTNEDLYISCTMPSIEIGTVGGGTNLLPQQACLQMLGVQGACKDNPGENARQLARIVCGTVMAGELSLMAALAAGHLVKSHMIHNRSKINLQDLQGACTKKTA

[4] = DRUGMATRIX: Interleukin IL-1 radioligand binding (ligand: [125I] interleukin 1beta); assay type: cell membranes, Membrane; conditions: nih3t3; Not Active = under 50% inhibition at 10 µM
[5] = molecular target: Protein phosphatase 3 catalytic subunit alpha (Homo sapiens, UniProt Q08209); design: species or system Escherichia coli;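 further: inhibition of calcineurin (PP2B) enzyme activity, measured with DiFMUP as the substrate; in other assays of this panel Not Active means under 50% inhibition at 10 µM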
[6] = molecular target: Voltage-gated inwardly rectifying potassium channel KCNH2 (Homo sapiens, UniProt Q12809); conditions: hek293; further: in other assays of this panel Not Active means under 50% inhibition at 10 µM
Sequence of Voltage-gated inwardly rectifying potassium channel KCNH2 (Q12809 whole entry): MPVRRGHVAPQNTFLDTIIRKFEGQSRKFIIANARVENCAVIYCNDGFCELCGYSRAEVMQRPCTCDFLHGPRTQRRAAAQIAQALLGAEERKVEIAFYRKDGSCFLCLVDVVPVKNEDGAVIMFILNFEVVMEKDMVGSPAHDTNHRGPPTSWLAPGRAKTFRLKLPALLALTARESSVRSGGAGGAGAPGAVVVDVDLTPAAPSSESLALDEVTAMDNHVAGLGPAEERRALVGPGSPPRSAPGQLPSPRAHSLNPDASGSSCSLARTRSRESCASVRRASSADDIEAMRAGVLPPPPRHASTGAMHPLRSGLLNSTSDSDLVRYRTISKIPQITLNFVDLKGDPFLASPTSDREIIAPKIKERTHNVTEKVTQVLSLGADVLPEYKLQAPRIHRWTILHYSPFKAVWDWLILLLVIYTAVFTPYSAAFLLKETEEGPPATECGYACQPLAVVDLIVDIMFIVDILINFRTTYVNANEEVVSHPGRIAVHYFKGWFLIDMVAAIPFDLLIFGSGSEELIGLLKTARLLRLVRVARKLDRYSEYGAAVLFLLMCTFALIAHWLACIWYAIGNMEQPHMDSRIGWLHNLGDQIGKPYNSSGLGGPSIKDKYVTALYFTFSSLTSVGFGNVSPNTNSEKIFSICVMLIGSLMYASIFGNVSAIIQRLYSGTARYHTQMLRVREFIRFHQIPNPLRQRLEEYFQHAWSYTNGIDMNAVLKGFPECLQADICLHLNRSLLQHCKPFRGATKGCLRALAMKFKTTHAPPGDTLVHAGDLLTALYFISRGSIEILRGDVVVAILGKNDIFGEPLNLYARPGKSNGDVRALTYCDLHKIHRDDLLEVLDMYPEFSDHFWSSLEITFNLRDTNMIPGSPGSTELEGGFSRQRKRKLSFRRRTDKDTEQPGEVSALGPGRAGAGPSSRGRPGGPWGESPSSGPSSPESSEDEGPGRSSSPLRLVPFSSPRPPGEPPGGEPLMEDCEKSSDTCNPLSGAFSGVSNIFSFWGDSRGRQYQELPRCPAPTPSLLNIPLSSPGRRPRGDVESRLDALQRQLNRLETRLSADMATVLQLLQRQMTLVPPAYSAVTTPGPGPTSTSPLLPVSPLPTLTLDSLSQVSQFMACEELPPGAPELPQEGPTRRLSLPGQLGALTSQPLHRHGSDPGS

Sequence of Cannabinoid receptor 1 (P21554 whole entry): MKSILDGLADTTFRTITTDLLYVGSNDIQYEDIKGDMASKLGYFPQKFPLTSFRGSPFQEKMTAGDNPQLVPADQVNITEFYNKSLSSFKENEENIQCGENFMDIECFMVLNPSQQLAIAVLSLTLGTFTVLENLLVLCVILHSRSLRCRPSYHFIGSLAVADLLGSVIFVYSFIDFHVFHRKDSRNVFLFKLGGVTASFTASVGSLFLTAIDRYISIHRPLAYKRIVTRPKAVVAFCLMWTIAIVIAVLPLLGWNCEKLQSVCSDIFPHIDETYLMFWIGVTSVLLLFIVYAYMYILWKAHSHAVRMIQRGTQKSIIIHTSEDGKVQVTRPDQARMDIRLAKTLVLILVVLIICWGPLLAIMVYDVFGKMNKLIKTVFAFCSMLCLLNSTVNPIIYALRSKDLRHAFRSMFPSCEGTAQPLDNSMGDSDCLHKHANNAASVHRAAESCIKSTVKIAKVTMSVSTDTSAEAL
Sequence of Beta-1 adrenergic receptor (P08588 whole entry): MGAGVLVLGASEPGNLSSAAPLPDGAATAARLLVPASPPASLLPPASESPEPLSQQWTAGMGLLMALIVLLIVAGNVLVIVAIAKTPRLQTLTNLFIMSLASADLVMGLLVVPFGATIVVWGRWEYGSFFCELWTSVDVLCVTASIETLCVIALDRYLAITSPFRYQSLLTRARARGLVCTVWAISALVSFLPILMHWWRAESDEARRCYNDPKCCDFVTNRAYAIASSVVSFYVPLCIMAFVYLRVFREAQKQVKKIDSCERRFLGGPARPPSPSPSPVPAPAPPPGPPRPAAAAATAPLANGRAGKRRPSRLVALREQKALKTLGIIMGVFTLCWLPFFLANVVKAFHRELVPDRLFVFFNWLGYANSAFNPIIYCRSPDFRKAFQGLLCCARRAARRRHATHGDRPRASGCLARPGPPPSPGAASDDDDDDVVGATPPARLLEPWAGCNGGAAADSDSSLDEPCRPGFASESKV

CNS(=O)(=O)Cc1ccc2[nH]cc(CCN(C)C)c2c1
Not Active: IC50 [1] | IC50 [2] | IC50 [3] | IC50 [4] | Ki [4] | IC50 [5] | IC50 [6] | Ki [6]

CCCc1nn(C)c2c(=O)[nH]c(-c3cc(S(=O)(=O)N4CCN(C)CC4)ccc3OCC)nc12
Not Active: IC50 [1] | IC50 [2] | IC50 [3] | IC50 [4] | Ki [4] | IC50 [5]

CCOC(N)=O
Not Active: IC50 [1] | IC50 [2] | IC50 [3] | IC50 [4] | Ki [4] | IC50 [5] | IC50 [6] | Ki [6]

CC(=O)Nc1nnc(S(N)(=O)=O)s1 [ACETAZOLAMIDE]
Not Active: IC50 [1] | IC50 [2] | IC50 [3] | IC50 [5] | IC50 [6] | Ki [6]

O=c1[nH]c2ccccc2n1CCCN1CCC(n2c(=O)[nH]c3cc(Cl)ccc32)CC1 [DOMPERIDONE]
Not Active: IC50 [1] | IC50 [2] | IC50 [3] | IC50 [5] | IC50 [6] | Ki [6]

OCCN1CCN(CCCN2c3ccccc3Sc3ccc(C(F)(F)F)cc32)CC1 [FLUPHENAZINE]
Not Active: IC50 [1] | IC50 [2] | IC50 [3] | IC50 [5]

CN1C2CCCC1CC(NC(=O)c1nn(C)c3ccccc13)C2 (stereo unspecified) [GRANISETRON]
Not Active: IC50 [1] | IC50 [2] | IC50 [3] | IC50 [5] | IC50 [6] | Ki [6]

C[C@@H](O)[C@H]1C(=O)N2C(C(=O)O)=C(S[C@@H]3CN[C@H](C(=O)N(C)C)C3)[C@H](C)[C@H]12 [MEROPENEM]
Not Active: IC50 [1] | IC50 [2] | IC50 [3] | IC50 [4] | Ki [4] | IC50 [5] | IC50 [6] | Ki [6]

CC[C@@H](CO)NC(=O)[C@@H]1C=C2c3cccc4c3c(cn4C)C[C@H]2N(C)C1 [METHYSERGIDE]
Not Active: IC50 [2] | IC50 [3] | IC50 [5] | IC50 [6] | Ki [6]

CCN(CC)CC#CCOC(=O)C(O)(c1ccccc1)C1CCCCC1 (stereo unspecified) [OXYBUTYNIN]
Not Active: IC50 [1] | IC50 [2] | IC50 [3] | IC50 [5] | IC50 [6] | Ki [6]

O=P(O)(O)C(O)(Cc1cccnc1)P(=O)(O)O [RISEDRONIC ACID]
Not Active: IC50 [1] | IC50 [2] | IC50 [3] | IC50 [4] | Ki [4] | IC50 [5] | IC50 [6] | Ki [6]

CN(CCOc1ccc(CC2SC(=O)NC2=O)cc1)c1ccccn1 (stereo unspecified) [ROSIGLITAZONE]
Not Active: IC50 [1] | IC50 [2] | IC50 [3] | IC50 [4] | Ki [4] | IC50 [5] | IC50 [6] | Ki [6]

C#CCN(C)[C@H](C)Cc1ccccc1 [SELEGILINE]
Not Active: IC50 [1] | IC50 [2] | IC50 [3] | IC50 [4] | Ki [4] | IC50 [5] | IC50 [6] | Ki [6]

Nc1ccc(S(=O)(=O)Nc2ncccn2)cc1 [SULFADIAZINE]
Not Active: IC50 [1] | IC50 [2] | IC50 [3] | IC50 [4] | Ki [4] | IC50 [5] | IC50 [6] | Ki [6]

COc1ncnc(NS(=O)(=O)c2ccc(N)cc2)c1OC [SULFADOXINE]
Not Active: IC50 [1] | IC50 [2] | IC50 [3] | IC50 [4] | Ki [4] | IC50 [5] | IC50 [6] | Ki [6]

Nc1ccc(S(=O)(=O)Nc2nccs2)cc1 [SULFATHIAZOLE]
Not Active: IC50 [1] | IC50 [2] | IC50 [3] | IC50 [4] | Ki [4] | IC50 [5] | IC50 [6] | Ki [6]

C[C@]12CC[C@H]3[C@@H](CCC4=CC(=O)CC[C@@]43C)[C@@H]1CC[C@@H]2O [TESTOSTERONE]
Not Active: IC50 [1] | IC50 [2] | IC50 [3] | IC50 [4] | Ki [4] | IC50 [5]

CC(C)(C)NC[C@H](O)COc1nsnc1N1CCOCC1 [TIMOLOL]
Not Active: IC50 [2] | IC50 [3] | IC50 [4] | Ki [4] | IC50 [5] | IC50 [6] | Ki [6]

CCS(=O)(=O)CCn1c([N+](=O)[O-])cnc1C [TINIDAZOLE]
Not Active: IC50 [1] | IC50 [2] | IC50 [3] | IC50 [4] | Ki [4] | IC50 [5] | IC50 [6] | Ki [6]

NC[C@H]1O[C@H](O[C@H]2[C@H](O)[C@@H](O[C@H]3O[C@H](CO)[C@@H](O)[C@H](N)[C@H]3O)[C@H](N)C[C@@H]2N)[C@H](N)C[C@@H]1O [TOBRAMYCIN]
Not Active: IC50 [1] | IC50 [2] | IC50 [3] | IC50 [4] | Ki [4] | IC50 [5] | IC50 [6] | Ki [6]

O=c1n(CCCN2CCN(c3cccc(Cl)c3)CC2)nc2ccccn12 [TRAZODONE]
Not Active: IC50 [1] | IC50 [2] | IC50 [3] | IC50 [5] | IC50 [6] | Ki [6]
